Reference: US20150045610A1, “METHOD OF MODIFYING SPERMATOGENESIS, SPERMIOGENESIS AND/OR FERTILITY IN MAMMALS” (Monell Chemical Senses Center, priority 2012, published 2015)

Molecular target: T1, humanized mhT1R3 (Homo sapiens, UniProt Q7RTX0, A109T/A120V/A176D/A197V/A198V/A228S/A231N/A248T/A280V/A282S/A302S/A412V/A417V/A46T/A537T/C375D/D124S/D249S/D250G/D364H/D419E/D470T/D491G/D88A/DEL352-352/DEL488-489/E172D/E199T/E203N/E217D/E356N/E45S/E481Q/E505D/E525K/E545Q/F540P/F555L/G168S/G205S/G311T/G314N/G355L/G360D/G414H/G438R/G439D/G463S/G50T/G542N/H261R/H278R/H281Y/H332P/I485M/I536F/INS376MLQNLSSG/K32Q/K339E/K422L/K494V/K86G/L173R/L245Q/L272V/L29F/L354S/L385Q/L433M/L458M/L483S/L71F/L74M/M151L/M315I/M318V/M31A/N285S/N386L/N532H/N68L/P112S/P246H/P335S/P416H/P420H/P441T/P60I/Q221E/Q257L/Q317R/Q330L/Q336H/Q359L/Q372R/Q418S/Q504K/Q531K/R123Q/R247D/R252Q/R291G/R30K/R357A/R443Q/R467V/R473T/R479Q/R482Q/R486Y/R498Q/R52N/R550K/R553A/R556P/R560K/R56Q/S251Q/S267K/S289H/S290H/S392A/S446A/S447E/S464P/S477T/S490P/S53Q/S559P/S58N/S67P/T195Q/T346A/T377L/T390I/T434S/T480L/T63N/V152I/V277A/V366M/V36I/V381L/V393T/V437A/V465T/V61P/W72L)
T1 construct: the extracellular domain is of mouse origin and the transmembrane and intracellular domains of human origin; mouse T1R3 extracellular domain (fusion partner replacing the human extracellular domain); expressed in transfected cells; host or cells: transgenic mice (Line 7, 9, 7c) on T1R3-null background; transgene under 13 kb T1R3 promoter, followed by IRES-eGFP
T1 sequence (Q7RTX0 with tags, fused parts or gaps L29F/R30K/M31A/K32Q/V36I/E45S/A46T/G50T/R52N/S53Q/R56Q/S58N/P60I/V61P/T63N/S67P/N68L/L71F/W72L/L74M/K86G/D88A/A109T/P112S/A120V/R123Q/D124S/M151L/V152I/G168S/E172D/L173R/A176D/T195Q/A197V/A198V/E199T/E203N/G205S/E217D/Q221E/A228S/A231N/L245Q/P246H/R247D/A248T/D249S/D250G/S251Q/R252Q/Q257L/H261R/S267K/L272V/V277A/H278R/A280V/H281Y/A282S/N285S/S289H/S290H/R291G/A302S/G311T/G314N/M315I/Q317R/M318V/Q330L/H332P/P335S/Q336H/K339E/T346A/DEL352-352/L354S/G355L/E356N/R357A/Q359L/G360D/D364H/V366M/Q372R/C375D/INS376MLQNLSSG/T377L/V381L/L385Q/N386L/T390I/S392A/V393T/A412V/G414H/P416H/A417V/Q418S/D419E/P420H/K422L/L433M/T434S/V437A/G438R/G439D/P441T/R443Q/S446A/S447E/L458M/G463S/S464P/V465T/R467V/D470T/R473T/S477T/R479Q/T480L/E481Q/R482Q/L483S/I485M/R486Y/DEL488-489/S490P/D491G/K494V/R498Q/Q504K/E505D/E525K/Q531K/N532H/I536F/A537T/F540P/G542N/E545Q/R550K/R553A/F555L/R556P/S559P/R560K limits assumed): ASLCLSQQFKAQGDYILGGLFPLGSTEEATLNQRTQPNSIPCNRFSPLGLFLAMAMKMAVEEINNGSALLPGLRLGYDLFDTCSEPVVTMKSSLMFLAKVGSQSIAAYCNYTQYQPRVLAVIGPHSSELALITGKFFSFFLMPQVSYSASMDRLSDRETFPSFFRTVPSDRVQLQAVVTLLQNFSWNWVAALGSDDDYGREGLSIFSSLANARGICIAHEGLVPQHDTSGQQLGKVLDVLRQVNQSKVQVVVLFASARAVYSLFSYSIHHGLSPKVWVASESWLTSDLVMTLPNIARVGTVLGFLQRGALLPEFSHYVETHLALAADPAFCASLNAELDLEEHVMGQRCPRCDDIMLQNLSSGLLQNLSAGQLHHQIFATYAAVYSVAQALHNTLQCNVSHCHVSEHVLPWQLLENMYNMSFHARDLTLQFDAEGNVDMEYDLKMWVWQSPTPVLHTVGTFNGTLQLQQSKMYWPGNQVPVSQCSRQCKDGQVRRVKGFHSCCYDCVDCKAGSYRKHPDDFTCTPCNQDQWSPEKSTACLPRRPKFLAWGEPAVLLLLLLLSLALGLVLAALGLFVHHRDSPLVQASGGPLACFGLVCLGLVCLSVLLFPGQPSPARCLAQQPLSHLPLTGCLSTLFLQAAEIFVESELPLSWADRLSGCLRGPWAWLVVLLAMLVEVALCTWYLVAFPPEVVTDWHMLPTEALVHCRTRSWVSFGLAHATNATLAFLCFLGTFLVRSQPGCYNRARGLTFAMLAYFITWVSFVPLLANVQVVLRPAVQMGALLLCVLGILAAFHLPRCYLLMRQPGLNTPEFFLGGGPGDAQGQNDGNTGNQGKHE
T1 sequence (Q925I4 20-843 partner): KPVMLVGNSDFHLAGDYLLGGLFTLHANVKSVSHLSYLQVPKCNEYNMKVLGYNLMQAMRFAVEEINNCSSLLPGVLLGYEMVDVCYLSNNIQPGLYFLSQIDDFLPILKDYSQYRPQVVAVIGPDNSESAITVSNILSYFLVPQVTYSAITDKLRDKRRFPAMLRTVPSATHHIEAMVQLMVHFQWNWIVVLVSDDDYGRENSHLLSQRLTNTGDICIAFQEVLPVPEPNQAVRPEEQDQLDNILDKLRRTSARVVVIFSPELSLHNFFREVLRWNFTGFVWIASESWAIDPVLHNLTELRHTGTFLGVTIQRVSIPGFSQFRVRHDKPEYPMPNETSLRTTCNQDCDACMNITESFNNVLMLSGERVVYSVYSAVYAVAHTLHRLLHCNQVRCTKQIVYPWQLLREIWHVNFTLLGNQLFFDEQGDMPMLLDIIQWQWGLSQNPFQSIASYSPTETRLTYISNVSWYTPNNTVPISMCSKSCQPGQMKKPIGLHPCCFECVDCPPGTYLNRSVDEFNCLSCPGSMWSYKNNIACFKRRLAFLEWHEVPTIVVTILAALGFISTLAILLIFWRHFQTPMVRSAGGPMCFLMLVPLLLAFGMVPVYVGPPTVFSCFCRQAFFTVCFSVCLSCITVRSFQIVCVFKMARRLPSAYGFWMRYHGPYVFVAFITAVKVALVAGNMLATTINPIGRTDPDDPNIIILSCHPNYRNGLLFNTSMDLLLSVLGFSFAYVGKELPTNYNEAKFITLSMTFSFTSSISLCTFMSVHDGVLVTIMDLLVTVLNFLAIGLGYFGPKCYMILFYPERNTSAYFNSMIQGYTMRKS
Assay: sweet taste preference of transgenic mice expressing humanized T1R3
Format: in vivo, mouse
Procedure: We used the chimeric mhT1R3 receptor to produce conventional transgenic animals. The DNA construct was injected into a genetically engineered mouse line that lacks endogenous T1R3 (T1R3KO or T1R3-null). […] We call these mice Line7.
For further crosses, we used the line 7 that has fewer copies of the transgene.
Such compounds may be produced normally in organs (e.g. in testis) or chemically synthesized.

## CC(C)(Oc1ccc(Cl)cc1)C(=O)O [clofibric acid]
1 mM clofibric acid
  sweet preference of Line 7 mice: blocked
Lines 7, 9, 7c expressing humanized receptor
  sweet responses of the transgenic animals: completely blocked
